The test system of data set [1] is synthesis of LTB4 in human whole blood. As to the kind of experiment: human whole blood (HWB) assay, LTB4 production inhibition. The data set is classed as cell-based. The following applies: calcimycin 20 μM. Put shortly: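 Plasma LTB4, quantified by HTRF immunoassay, is the read-out after calcimycin challenge (20 μM final, 30 min, 37 °C) of heparinized whole blood that had been pretreated with compound for 15 min at 37 °C; values given as IC50.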

Data set [2] concerns aged C57BL6 mice. As to the kind of experiment: Nesting. It counts as in vivo, mouse. Conditions: 10 days of dosing. The protocol: All nesting material was removed from home cage and mice were given 2 fresh nestlets 12-18 hours prior to scoring. The nest was carefully scored on a scale of 0-5 by an experimenter blinded to treatment group: 0 undisturbed, 1 disturbed, 2 flat, 3 cup, 4 incomplete dome, 5 complete dome.

In data set [3] the test system is LTA4H hydrolysis activity in human whole blood. The experiment in a line: Ex Vivo LTB4 Assay, human blood. It counts as cell-based. The following applies: human whole blood incubated with compound. The protocol: Whole blood was incubated with Compound 1 or vehicle and then a calcium ionophore (Calcimycin, A23187), or 10% DMSO. LTB4 levels in plasma were measured using ELISA.
FIGS. 36-37 report the results of ex vivo target engagement assays with Compound 1 in human and mouse plasma. Whole blood from human or mouse was incubated with vehicle or Compound 1, following by a calcium ionophore stimulation. Plasma was generated and LTB4 levels were measured using ELISA. LTB4 is the product of LTA4H hydrolysis so this assay reports on LTA4H enzymatic activity.

Data set [4] in a line: Pharmacokinetic Measurement of Compound 1 (LC-MS/MS). The data set is classed as in vivo, mouse. The following applies: C57BL/6 mice. From the text: The mice are subjected to cardiac puncture and blood samples were collected using syringes pre-filled with K2EDTA or heparin. […] Hemi-brain tissue was homogenized with 3× volumes of ice-cold water, then further diluted 2× with blank mouse plasma prior to analysis. […]

For data set [5], the target named is LTA4H hydrolase activity (Mus musculus (Mouse), UniProt P24527). As to the kind of experiment: Pharmacodynamic analysis of plasma LTB4 after a single dose. The data set is classed as in vivo. The protocol:
Whole blood was collected by cardiac puncture using heparin as an anti-coagulant. 160 μL of whole blood was collected in duplicate for each mouse and incubated for 15 minutes in 37° C./5% CO2. During this time a 0.1 mM calcimycin stock was made by diluting 10 mM calcimycin (Sigma C7522) formulated in DMSO into PBS. Control solution was made by diluting the same volume of DMSO in PBS. Both solutions were sonicated for 10 minutes in a 37° C. water bath. 40 μL of 0.1 mM calcimycin (stimulated) or control solution (unstimulated) was added to each well of whole blood and incubated at 37° C./5% CO2 for 30 minutes. Whole blood was spun for 10 minutes at 1000×g to separate out plasma. LTB4 levels were detected by running an ELISA on the collected stimulated and unstimulated plasma diluted 1:10 (Enzo Life Sciences, ADI-901-068). The ELISA plates were read on a BMG LABTECH CLARIOstar plate reader at 405 nm.

Data set [6] deals with aged wild type (WT; C57BL/6) mice. As to the kind of experiment: Iba-1 histology in hippocampus. The data set is classed as in vivo, mouse. Conditions: 4 weeks of dosing. The protocol:
Brains were collected following saline perfusion and separated by mid-sagittal slice with one-half drop fixed in freshly prepared 4% PFA. PFA was changed to 30% sucrose 24-48 hours later. A second change to 30% sucrose occurred 24 hours later. Brain tissue was sectioned or lysed and analyzed for GFAP, AQP4, or IBA1 by standard histological methods. Images were acquired using a confocal microscope or Axioscan slide scanner.
Three independent cohorts of aged wild type (WT; C57BL/6) mice between twenty to twenty-two months of age (20-22 mo) were homogenized into two (2) groups by body weight, total distance travelled in the open field test, and average velocity in the open field test. Group 1 was administered vehicle control PO daily. Group 2 was administered 10 mg/kg of the LTA4H inhibitor Compound 1 PO daily. Both groups were dosed for either 10 days or 4 weeks daily. Behavioral assays were run during the last week of dosing and animals were sacrificed at the end of the study for histological and molecular assays.

Data set [7] relates to aged C57BL6 mice. The experiment in a line: Rotarod. It counts as in vivo, mouse. Conditions: 19 days of dosing. The protocol:
Mice were trained by allowing to run on the rotarod at 5 RPM speed setting on the i-Therm CTR-44 Rotarod for 5 minutes, if the mouse fell off it was put back on until it was able to complete minutes without falling off. After 15 minutes, if the mouse is unable to stay on the rotarod for a continuous 5 minutes, the mouse is excluded from analysis. Mice were then given 3 trials where the speed was increased from 5 RPM to 40 RPM over 90 seconds; the time at which the mouse fell off was recorded for each trial. Inter-trial interval is at least 15 minutes to allow the mice adequate rest. The rotarod is cleaned with 70% ethanol between trials.
Background: The rotarod test checks motor coordination on a turning rod.

Data set [8] concerns hippocampal neurons of aged C57BL/6 mice. The experiment in a line: Single cell RNA sequencing of NeuN+ hippocampal nuclei (CA1, DG). The data set is classed as in vivo, mouse. The protocol: Aged C57BL/6 mice (21 months of age) were treated for 1 month bid po with vehicle, 1 mg/kg Compound 1, or 2.5 mg/kg SC57461A (n=3 mice per treatment group). NucSeq For Mouse Brain Tissue protocol from 10× Genomics was used to isolate mouse hippocampus nuclei. Approximately 65 mg of brain tissue were used per treatment. Nonidet P40 was used to lyse cell walls and isolated nuclei were stained with Draq5 and NeuN antibodies for FACS sorting. Approximately 5,000 nuclei were collected for each sample. Eight samples were collected for each treatment for a total of 40,000 nuclei per treatment. These samples were prepped for sequencing using the 10× Genomics Chromium Next GEM kit.
GO terms are generated using the g:Profiler Web server (https://bitt.cs.ut.ee/gprofiler) to analyze differential regulated gene lists. Reported are the top 20 gene ontology (GO terms) terms from the biological process category, sorted by significance as determined by P-value. This list was filtered to report significant GO terms that include less than 1000 genes.

The mark [9] stands for this setting: single oral gavage dose 10, 1, 0.3, 0.1 mg/kg.
The mark [10] stands for this setting: 1 month bid po, 1 mg/kg Compound 1 or 2.5 mg/kg SC57461A.

The structures appear in SMILES notation.

The IC50 is the concentration needed to halve the response being measured.

Sequence of LTA4H hydrolase activity (P24527 whole entry): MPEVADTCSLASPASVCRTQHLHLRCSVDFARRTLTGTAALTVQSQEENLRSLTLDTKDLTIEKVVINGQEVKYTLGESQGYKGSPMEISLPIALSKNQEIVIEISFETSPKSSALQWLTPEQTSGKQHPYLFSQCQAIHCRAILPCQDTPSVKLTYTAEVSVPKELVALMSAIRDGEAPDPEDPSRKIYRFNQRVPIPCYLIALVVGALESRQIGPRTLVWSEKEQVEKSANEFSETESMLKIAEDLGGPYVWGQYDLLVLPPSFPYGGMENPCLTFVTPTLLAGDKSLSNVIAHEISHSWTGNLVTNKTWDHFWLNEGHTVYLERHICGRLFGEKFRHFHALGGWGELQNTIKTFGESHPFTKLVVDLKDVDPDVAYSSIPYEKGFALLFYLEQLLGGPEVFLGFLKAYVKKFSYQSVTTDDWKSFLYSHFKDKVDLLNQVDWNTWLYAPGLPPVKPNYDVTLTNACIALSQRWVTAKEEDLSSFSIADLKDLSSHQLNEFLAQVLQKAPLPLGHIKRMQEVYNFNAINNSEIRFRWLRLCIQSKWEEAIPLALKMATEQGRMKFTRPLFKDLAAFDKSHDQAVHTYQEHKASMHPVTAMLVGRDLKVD

`O=C(O)C1CCN(Cc2ccc([C@H]3COc4ccccc4O3)cc2)CC1` [Example 1, 1-{4-[(2S)-2,3-dihydro-1,4-benzodioxin-2-yl]benzyl}piperidine-4-carboxylic acid]: in data set [1], the IC50 came out at 179 nM. Further, the nesting building score result in data set [2] was “no change in nesting building score”. Also, the “LTB4 plasma levels after calcium ionophore stimulation” value in data set [3] was “reduces LTB4 plasma levels to unstimulated levels”. Besides, the brain penetration result in data set [4] (single oral dose) is “brain penetrant, even at low doses”. In data set [4] (setting [9]), the “blood levels of Compound 1” value is “sustained and detectable in plasma and blood for up to 24 hours”; the “brain levels of Compound 1” value was “sustained and detectable for up to 24 hours”; the “plasma levels of Compound 1” value is “sustained and detectable in plasma and blood for up to 24 hours”. Also, the “calcimycin stimulated plasma LTB4 levels” value in data set [5] (single 1 mg/kg oral dose, multiple timepoints, C57BL/6 mice) is “reduction in the pharmacodynamic readout of calcimycin stimulated plasma LTB4 levels”. Besides, in data set [5] (single dose 0.3, 0.1 or 0.03 mg/kg, 6 hours post dosing), the “plasma LTB4 levels, dose response” value is listed as “dose response in the pharmacodynamic readout of plasma LTB4 levels”. Further, the “Iba-1 percent thresholded area in the hippocampus” value in data set [6] was “reduction in Iba-1 percent thresholded area”. Also, the “average time before falling on the rotarod” value in data set [7] was “no change in average time before falling”. Besides, in data set [8] (setting [10]), the “CA1 neuronal gene changes” value is listed as “many significant gene changes to neurons in the CA1 region of the hippocampus”, the “DG neuronal gene changes” value is on record as “many significant gene changes to neurons in the DG region of the hippocampus”, the “Dcc gene expression in the dentate gyrus” value is listed as “upregulation of Dcc gene expression” and the “Spock3 gene expression in the dentate gyrus” value is “upregulation of Spock3 gene expression”. Also, in data set [8] (long-term treatment), the “Biological Process GO terms, CA1 hippocampal neurons” value was “changes to “synaptic signaling” and “synaptic organization””; the “Biological Process GO terms, DG hippocampal neurons” value was “changes to synapses”.

For the origin of these results see patent US11957671B2, “Benzodioxane modulators of leukotriene A4 hydrolase (LTA4H) for prevention and treatment of aging-associated diseases” (Alkahest, Inc., priority 2021, dated 2024).
